Converted amounts (≈) assume the structure as drawn. Where two headings read alike, the source gives them in different places.
Tests used:
[1] = test system: interleukin 6 (IL-6) production by RAW 264.7 stimulated by LPS; assay: Anti-inflammatory activity: IL-6 production by LPS-stimulated macrophages; type: cell-based, Murine; conditions: for IC50: Mus musculus, RAW264.7, LPS-stimulated RAW 264.7, average of four repetitions ± SEM
Protocol: (§1) The anti-inflammatory activity of flavonoids was evaluated as their ability to decrease the production of signaling molecules that mediate inflammation, such as nitric oxide (NO), tumor necrosis factor (TNF-α), and interleukin 6 (IL-6), in LPS-stimulated macrophages.
(§2) The anti-inflammatory activity of the tested flavonoids was determined as the ability to reduce the production of nitric oxide (NO), tumor necrosis factor (TNF-α), and interleukin 6 (IL-6) by RAW 264.7 stimulated by LPS, as previously described.[39],[40] Briefly, 1 × 10^6 cells/mL was seeded into the 96-well plate (100 μL/well). After 48 h, LPS (100 ng/mL) and the samples (3–100 μM) were added to the MEM medium. After 24 h, the medium was mixed with Griess reagent (0.04 g/mL) at a 1:1 ratio. The absorbance was measured after 15 min at 540 nm. Cell viability was determined using the resazurin assay.
To determine TNF-α levels, cells were precultivated with the tested compounds for 24 h. After 2 h of incubation with LPS, the medium was diluted 1:10 with ELISA diluent. To determine the level of IL-6, cells were cultivated for 6 h with LPS and the tested compounds. Cytokine production was determined using an uncoated ELISA performed according to the manufacturer’s instructions.

[2] = test system: human dermal fibroblasts (HDF); assay: Cytotoxicity (resazurin assay), fibroblasts; type: cell-based; conditions: Homo sapiens, Fibroblast, 72 h, read-out: HDF IC50 (concentration that halved the viability)
Protocol: The cytotoxicity of the prepared derivatives was evaluated by their ability to decrease the viability of immortalized human keratinocytes (HaCaT) and human dermal fibroblasts (HDF).
100 μL of cell suspension containing 10^5 cells/mL was pipetted into a 96-well plate. After 24 h incubation, the tested compounds were added in the concentration range 12.5–200 μM. After 72 h incubation, the cell viability was tested by standard resazurin assay.[41] Briefly, the cells were washed with PBS and incubated with 100 μL of resazurin solution (0.025 mg/mL) for 2 h. The fluorescence was measured at a wavelength of 560 nm excitation/590 nm emission.

S. aureus MRSA 9 = assay: Antibacterial activity, multidrug-resistant strain; type: cell-based; conditions: Staphylococcus aureus, MRSA; multidrug-resistant strain; three repetitions ± SEM
Protocol: To evaluate the ability to modulate bacterial resistance, the tested flavonoids themselves cannot exert antimicrobial activity; therefore, the nontoxic concentration was used, as indicated in Table S5. Clinically relevant antibiotics were selected at breakpoint concentrations for susceptibility testing according to the European Committee on Antimicrobial Susceptibility Testing (EUCAST, version 11.0). […] Flavonoids and their derivatives (from 1 μM to the highest nontoxic concentration) were used in combination with the breakpoint concentration of the antibiotics. After coincubation, the minimum inhibitory concentration (MIC) of flavonoids inhibiting the visible growth of bacteria was determined (Table 2).
(§3) Sensitization of multidrug-resistant clinical bacterial strains was performed according to ref[15]. Antibiotic cutoff concentration was chosen according to the European Committee on Antimicrobial Susceptibility Testing (EUCAST, Clinical breakpoints–bacteria, ver. 11.0). The 200 μM concentration of the derivatives was chosen as the highest test concentration. The absorbance detected at 600 nm was then used to estimate the number of viable cells after 24 h of incubation at 37 °C and 120 rpm.
(§4) Experiments were performed with the respective number of replicates indicated in each figure/table. MIC was determined as IC70. Both IC70 and IC50 values were calculated using the following nonlinear regression in the software GraphPad Prism: […]

[3] = test system: nitric oxide (NO) production by RAW 264.7 stimulated by LPS; assay: Anti-inflammatory activity: NO production by LPS-stimulated macrophages; type: cell-based, Murine; conditions: Mus musculus, RAW264.7; LPS-stimulated RAW 264.7; average of four repetitions ± SEM
Protocol: as §1, §2

[4] = test system: Methicilin-Resistant S. aureus 331 Strain; assay: Mode of antimicrobial action with erythromycin, ermC-positive strain; type: cell-based; conditions: for MIC, erythromycin [1 mg/L] yes / MIC, erythromycin [1 mg/L] no: MRSA 331 (ermC); for MIC, erythromycin [1 mg/L] yes: with erythromycin 1 mg/L; for MIC, erythromycin [1 mg/L] no: without erythromycin; for FIC (Fractional Inhibitory Concentration Index): with erythromycin
Excerpt: (§5) Erythromycin is a macrolide antibiotic that inhibits proteosynthesis by binding to the 50S subunit of the ribosome. In Staphylococcus species, resistance to erythromycin is associated with the presence of methyltransferases (encoded by erm genes) that alter the ribosomal target site. Another typical mechanism of resistance to erythromycin is the presence of an ATP-dependent efflux pump encoded by the msr(A) gene or a major facilitator superfamily (MFS) pump encoded by the lmrS gene. Both efflux pumps reduce the concentration of erythromycin in the cell below the therapeutic dose by transporting it across the membrane to the extracellular space. Another erythromycin resistance gene is the mph(C) gene, the product of which is a phosphotransferase that alters the structure of macrolide antibiotics. To elucidate the mechanism of erythromycin resistance modulation in S. aureus, further tests were performed with the strains MRSA 331 and MRSA 3596, which inactivate erythromycin via a single mechanism (ermC and ermA, respectively). […] Therefore, if the activity was not strain-specific, it would be necessary to consider the effect of the derivatives on this pump (Table 3).
as §3, §4

MRSA 3596 = assay: Mode of antimicrobial action with erythromycin or gentamicin, ermA- and aadD-positive strain; type: cell-based, S. aureus; conditions: for effect (mode of action with erythromycin) / effect (mode of action with gentamicin) / FIC (Fractional Inhibitory Concentration Index): MRSA 3596; for MIC, Gentamicin [1 mg/L] yes / MIC: MRSA 3596 (aadD); for MIC, Gentamicin [1 mg/L] yes: with gentamicin 1 mg/L; for MIC, erythromycin [1 mg/L] yes / MIC, erythromycin [1 mg/L] no: MRSA 3596 (ermA); for MIC, erythromycin [1 mg/L] yes: with erythromycin 1 mg/L; for MIC, erythromycin [1 mg/L] no: without erythromycin, Table 4; for MIC: Staphylococcus aureus, 24 h, read-out: MIC, Gentamicin [1 mg/L] no, without gentamicin, Table S6
Excerpt: as §5
Among the mechanisms of resistance to gentamicin previously described in S. aureus, the presence of enzymes that alter the structure of aminoglycosides is crucial. These enzymes can transfer nucleotides, phosphates, or acetyls to various −OH or −NH2 groups of gentamicin, preventing its subsequent interaction with the cellular target, i.e., the 30S ribosomal subunit. The bifunctional aminoglycoside-modifying enzyme with acetylation and phosphotransferase activities encoded by the gene aac(6’)/aph(2’), 4′,4″ adenyltransferase encoded by the aadD gene, and aminoglycoside O-phosphotransferase encoded by the gene aph(3′) are the most important.[37] […] For this reason, further testing continued using strains MRSA 3596 and MRSA 1584, which inactivate gentamicin only by a single mechanism (aadD and aac(6’)-aph(2’’), respectively).
as §3, §4

Row | Compound | IC50 [1] [µM] | IC50 [2] [µM] | IC50 (S. aureus MRSA 9) [µM] | IC50 [3] [µM] | effect (mode of action with erythromycin) ([4]; MRSA 331) | MIC, erythromycin [1 mg/L] yes [4] [µM] | MIC, erythromycin [1 mg/L] no [4] [µM] | effect (mode of action with erythromycin) (MRSA 3596) | effect (mode of action with gentamicin) (MRSA 3596) | MIC, Gentamicin [1 mg/L] yes (MRSA 3596) [µM] | MIC, erythromycin [1 mg/L] yes (MRSA 3596) [µM] | MIC, erythromycin [1 mg/L] no (MRSA 3596) [µM] | MIC (MRSA 3596) [µM] | FIC (Fractional Inhibitory Concentration Index) ([4]; MRSA 331) | effect (mode of action with erythromycin) (MRSA 3596; listed as luteolin) | FIC (Fractional Inhibitory Concentration Index) (MRSA 3596; with erythromycin) | FIC (Fractional Inhibitory Concentration Index) (MRSA 3596; with gentamicin) | ability to inhibit IL-6 production compared to luteolin, in words ([1]; LPS-stimulated macrophages) | IC50 ([2]; 72 h incubation, resazurin, average of three repetitions ± SEM) [µM]
1 | O=c1c(O)c(-c2ccc(O)c(O)c2)oc2c(Nc3ccc(C(F)(F)F)cc3)c(O)cc(O)c12 [compound 8, 2-(3,4-Dihydroxyphenyl)-8-(4-(trifluoromethyl)anilino)-3,5,7-trihydroxy-4H–1-benzopyran-4-one] | 35.1 ± 1.6 | 111.9 ± 0.5 | 35.3 ± 0.7 | 53.3 ± 0.8 | antagonism (≥2 indicates antagonism) | 15.9 ± 0.8 (≈ 7.34 µg/mL) | 6.9 ± 0.2 (≈ 3.18 µg/mL) | synergy (Fractional Inhibitory Concentration Index (FIC) < 0.5 indicates synergism) | synergy (Fractional Inhibitory Concentration Index (FIC) < 0.5 indicates synergism) | 5.7 ± 0.1 (≈ 2.63 µg/mL) | 8.4 ± 1.1 (≈ 3.88 µg/mL) | 37.9 ± 0.1 (≈ 17.5 µg/mL) | 37.9 ± 0.1 (≈ 17.5 µg/mL) |  |  |  |  |  | 
2 | O=c1cc(-c2ccc(O)c(O)c2)oc2cc(O)cc(O)c12 [compound 10, luteolin, reference compound] | 7.3 ± 0.2 | 42.9 ± 3.4 | > 200 | 13.3 ± 0.2 |  | 31.6 ± 2.5 (≈ 9.05 µg/mL) | 28.1 ± 0.3 (≈ 8.04 µg/mL) | synergy (Fractional Inhibitory Concentration Index (FIC) < 0.5 indicates synergism) | synergy (Fractional Inhibitory Concentration Index (FIC) < 0.5 indicates synergism) | 6.7 ± 0.1 (≈ 1.92 µg/mL) | 14.3 ± 0.9 (≈ 4.09 µg/mL) | 51.1 ± 1.3 (≈ 14.6 µg/mL) | 51.1 ± 1.3 (≈ 14.6 µg/mL) | 1.12 ± 0.10 | synergistic activity | 0.28 ± 0.02 | 0.13 ± 0.01 |  | 
3 | O=c1cc(-c2ccc(O)c(O)c2)oc2c(Nc3ccc(F)cc3)c(O)cc(O)c12 [compound 11, 2-(3,4-Dihydroxyphenyl)-8-(4-fluoroanilino)-5,7-dihydroxy-4H–1-benzopyran-4-one] | 7.2 ± 0.3 | 51.9 ± 3.7 | 38 ± 1.2 | > 25 |  | 57.4 ± 0.2 (≈ 22.7 µg/mL) | 57.6 ± 0.2 (≈ 22.8 µg/mL) |  |  | > 200 | 28.0 ± 0.5 (≈ 11.1 µg/mL) | 32.9 ± 0.6 (≈ 13 µg/mL) | > 200 | 1.00 ± 0.01 |  | 0.85 ± 0.03 |  | same ability to inhibit IL-6 production as luteolin | 
4 | COc1ccc(Nc2c(O)cc(O)c3c(=O)cc(-c4ccc(O)c(O)c4)oc23)cc1 [compound 12, 2-(3,4-Dihydroxyphenyl)-8-(4-methoxyanilino)-5,7-dihydroxy-4H–1-benzopyran-4-one] | 15.3 ± 0.5 |  | 112 ± 1.2 | 48.3 ± 1.3 |  | 54.8 ± 0.4 (≈ 22.3 µg/mL) | 54.4 ± 2.1 (≈ 22.2 µg/mL) | synergy (Fractional Inhibitory Concentration Index (FIC) < 0.5 indicates synergism) | synergy (Fractional Inhibitory Concentration Index (FIC) < 0.5 indicates synergism) | 31.4 ± 1.0 (≈ 12.8 µg/mL) | 20.0 ± 0.6 (≈ 8.15 µg/mL) | 53.6 ± 0.5 (≈ 21.8 µg/mL) | 91 ± 0.9 (≈ 37.1 µg/mL) | 1.01 ± 0.05 |  | 0.37 ± 0.01 | 0.34 ± 0.01 |  | 35.5 ± 1.5
5 | O=c1cc(-c2ccc(O)c(O)c2)oc2c(Nc3ccc(C(F)(F)F)cc3)c(O)cc(O)c12 [compound 14, 2-(3,4-Dihydroxyphenyl)-8-(4-(trifluoromethyl)anilino)-5,7-dihydroxy-4H–1-benzopyran-4-one] | 12.4 ± 0.4 | 29.9 ± 1.1 | 24 ± 0.1 | > 25 |  | 27.0 ± 1.5 (≈ 12 µg/mL) | 27.0 ± 5.1 (≈ 12 µg/mL) | antagonism (≥2 indicates antagonism) |  | > 200 | 29.9 ± 1.4 (≈ 13.3 µg/mL) | 14.4 ± 0.1 (≈ 6.41 µg/mL) | > 200 | 1.00 ± 0.25 |  | 2.07 ± 0.11 |  |  | 

— paper PMC11325505, “Nitrogen-Containing Flavonoids—Preparation and Biological Activity” (ACS Omega, 2024)
